Reference: patent publication US20060009358A1, “Synergistically acting herbicidal mixtures” (priority 2002, published 2006)

How the values were obtained:
Assay in all cases: Herbicidal action, post-emergence treatment, greenhouse (damage 0-100% vs untreated control)
Assay type in all cases: in vivo
Galium aparine = tested on: Galium aparine
Excerpt: (§1) The mixtures according to the invention were applied pre- or post-emergence (foliar treatment). The herbicidal compounds of component B and, if desired, of component C were applied in the formulation in which they are present as commercially available product.
(§2) The herbicidally active compounds of components A), B) and, if desired, C) were applied in succession or jointly, in the latter case in some cases as a tank mix and in some cases as a ready-mix, in the form of emulsions, aqueous solutions or-suspensions, the vehicle being water (300-400 l/ha). In the case of the field trials, application was effected with the aid of a mobile plot sprayer.
(§3) The test period extended over 3 to 8 weeks, and the stands were also observed at later points in time.
(§4) Damage by the herbicidal compositions was evaluated with reference to a scale of 0% to 100% in comparison with untreated control plots. 0 means no damage and 100 means complete destruction of the plants.
(§5) In these examples, the value E at which only an additive effect of the individual active ingredients is to be expected was calculated by the method of S. R. Colby (Calculating synergistic and antagonistic responses of herbicide combinations, Weeds 15, 20 pp (1967)).
(§6) This was done using the formula [formula] where • X=Percentage of the herbicidal action of component X) at an application rate of x; • Y=Percentage of the herbicidal action of component Y) at an application rate of y; • E=expected herbicidal action of component X)+Y) at rates of application x+y (in %).
(§7) If the value observed exceeds the value E calculated in accordance with Colby's formula, then synergism is present.

Abutilon theophrasti = tested on: Abutilon theophrasti
Excerpt: as §1, §2, §3, §4, §5, §6, §7

Pharbitis purpurea = conditions: Table 11, application rate 31.2 g/ha ai
Excerpt: as §1, §2, §3, §4, §5, §6, §7

Polygonum persicaria = tested on: Polygonum persicaria
Excerpt: as §1, §2, §3, §4, §5, §6, §7

Setaria faberi = tested on: Setaria faberi
Excerpt: as §1, §2, §3, §4, §5, §6, §7

Brachiaria plantaginea = conditions: Table 8, application rate 125 g/ha ai
Excerpt: as §1, §2, §3, §4, §5, §6, §7

Echinochloa crus-galli = conditions: Table 5, application rate 3.91 g/ha ai
Excerpt: as §1, §2, §3, §4, §5, §6, §7

[1] = Table 4, application rate 7.81 g/ha ai
[2] = Table 3, application rate 3.91 g/ha ai

Cc1c(C(=O)c2cnn(C)c2O)ccc(S(C)(=O)=O)c1C1=NOCC1 [Ia.29, 4-[2-methyl-3-(4,5-dihydroisoxazol-3-yl)-4-methylsulfonyl-benzoyl]-1-methyl-5-hydroxy-1H-pyrazole]
Galium aparine Damage (Galium aparine; [1]): 70%
Abutilon theophrasti Damage (Abutilon theophrasti; [2]): 60%

CCNc1nc(Cl)nc(NC(C)C)n1 [atrazine]
Pharbitis purpurea Damage (Pharbitis purpurea): 60%
Galium aparine Damage (Galium aparine; Table 9, application rate 125 g/ha ai): 60%
Polygonum persicaria Damage (Polygonum persicaria; Table 10, application rate 62.5 g/ha ai): 40%
Polygonum persicaria Damage (Polygonum persicaria; Table 12, application rate 31.2 g/ha ai): 30%
Abutilon theophrasti Damage (Abutilon theophrasti; Table 8, application rate 125 g/ha ai): 30%
Setaria faberi Damage (Setaria faberi; Table 11, application rate 31.2 g/ha ai): 30%
Brachiaria plantaginea Damage (Brachiaria plantaginea): 25%

Cc1ccn2nc(S(=O)(=O)Nc3c(F)cccc3F)nc2n1 [IIa, flumetsulam]
Galium aparine Damage (Galium aparine; [1]): 80%
Abutilon theophrasti Damage (Abutilon theophrasti; [2]): 60%
Echinochloa crus-galli Damage (Echinochloa crus-galli): 25%

O=C(O)c1nc(Cl)ccc1Cl [IIb, clopyralid]
Setaria faberi Damage (Setaria faberi; Table 6, application rate 250 g/ha ai): 20%
Setaria faberi Damage (Setaria faberi; Table 7, application rate 125 g/ha ai): 20%
